According to patent US9408848B2, “Fluorescent CDK inhibitors for treatment of cancer” (Georgetown University, priority 2008, dated 2016):

Key:
CDK2/cyclinE = molecular target: T1, CDK2/cyclinE (Homo sapiens, UniProt P24941); assay: Kinase assay ([γ-33P]-ATP, histone H1); assay type: biochemical; details: read-out: % inhibition of kinase activity, CDK2/cyclinE
T1 construct: purchased Millipore, Dundee, UK (screening service)
Protocol: (§1) The final reaction was carried out in a 25 μL solution.
(§2) Briefly assays were performed with a Biomek 2000 Laboratory Automation Workstation in a 96-well format (Beckman instruments, Palo Alto, Calif., U.S.A) for 40 min at ambient temperature in 25 μL incubations using [γ-^33P]-ATP. In a final reaction volume of 25 μL corresponding CDK/cyclin (h) (5-10 mU) was incubated with 8 mM MOPS pH 7.0, 0.2 mM EDTA, 0.1 mg/mL histone H1, 10 mM MgAcetate and [γ-^33P-ATP](specific activity approx. 500 cpm/pmol, concentration as required). The reaction was initiated by the addition of the MgATP mix. After incubation for 40 min at room temperature, the reaction was stopped by the addition of 5 μL of a 3% phosphoric acid solution.

CDK3/cyclinE = molecular target: T2, CDK3/cyclinE (Homo sapiens, UniProt Q00526); assay: Kinase assay ([γ-33P]-ATP, histone H1); assay type: biochemical; details: read-out: % inhibition of kinase activity, CDK3/cyclinE
T2 construct: purchased Millipore, Dundee, UK (screening service)
Protocol: as §1, §2

[1] = system: T3, CDK1/cyclinA (Homo sapiens); assay: Kinase assay ([γ-33P]-ATP, histone H1); assay type: biochemical; details: read-out: % inhibition of kinase activity, CDK1/cyclinA
T3 construct: purchased Millipore, Dundee, UK (screening service)
Protocol: as §1, §2

CDK1/cyclinB = molecular target: T4, CDK1/cyclinB (Homo sapiens, UniProt P06493); assay: Kinase assay ([γ-33P]-ATP, histone H1); assay type: biochemical; details: compound 0.1 μM
T4 construct: purchased Millipore, Dundee, UK (screening service)
Protocol: as §1, §2

MCF-7 [2] = assay: Cell cycle analysis by flow cytometry (propidium iodide); assay type: cell-based, human
Protocol: (§3) 5 μM concentrations were used for all drugs tested. The cells were exposed to the vehicle (DMSO) or […] of the CDK inhibitors for 24 hrs. The cell cycle distribution was then assessed using standard procedures.

MDA-MB-231 [3] = assay: as above; assay type: cell-based, human
Protocol: as §3

MDA-MB-231 cells = assay: Apoptotic signaling, Western blot of apoptosis related proteins; assay type: cell-based, human; details: MDA-MB-231, 10 μM, 48 hours
Protocol: In order to understand whether VMY-1-101 and VMY-1-103 compounds were able to induce apoptotic cell death, the expression of anti- and pro-apoptotic proteins in MDA-MB-231 cells following treatment with 10 μM drugs for 48 hours was evaluated first. […] This is further confirmed with proapoptotic 116 kDa poly (ADP-ribose) polymerase protein (PARP) into its 89-kDa fragments. […].
Western blotting was performed according to literature procedure. In brief, cell pellets were collected at the indicated times after treatment with compounds, suspended in 100 μL of lysis buffer (50 mM Tris-HCl, 150 mM NaCl, 1 mM EGTA, 1 mM EDTA, 20 mM NaF, 100 mM Na3VO4, 0.5% NP-40, 1% Triton X-100, 1 mM PMSF, 5 μg/ml aprotinin, 5 μg/ml leupeptin), vortexed twice and incubated in an ice bath for 30 min. Lysates were cleared by centrifugation at 12000 rpm for 15 min at 4° C. and protein was estimated by detergent compatible BCA protein assay kit (Pierce). Equivalent amounts of total proteins were resolved by SDS-PAGE (10%) and transferred to PVDF membrane. Membranes were blocked by 5% non-fat powdered milk in TBST overnight. Membranes were incubated with indicated primary antibodies for 2 hours followed by HRP-conjugated secondary antibodies for 1 hr and developed using enhanced chemiluminescence kit (Perkin Elmer).

MCF-7 [4] = assay: Cell viability assay (WST-1); assay type: cell-based, human; details: Homo sapiens, MCF7, 48 h, read-out: IC50 (concentration yielding 50% growth inhibition)
Protocol: (§4) (10%), 2 mM L-glutamine, and 50 μg/mL each of antibiotics, namely penicillin, streptomycin, and neomycin at 37° C. in a humidified incubator containing 5% CO2
(§5) Briefly human breast cancer cells were seeded into a 96-well plate at 3000 cells per well in DMEM containing 10% FBS. Following 24 hours attachment period, compounds were dissolved in DMSO and serially diluted in tissue culture media and added to the cells in triplicate, and incubated for 48 h at 37° C. Control cells were treated with equal amount of DMSO. After 48 h incubation, cell viability was measured by WST-1 assay according to the manufacturer's instructions (Roche). […] The formazan absorbance, which correlates to the number of living cells, was measured at 450 nm and 630 nm as reference filter using a microplate reader. (Ultramark, Microplate Imaging System, Bio-Rad). The IC50 was calculated from the graph of the log of the compound concentration versus the fraction of the surviving cells.

MDA-MB-231 [5] = assay: Cell viability assay (WST-1); assay type: cell-based, human; details: Homo sapiens, MDA-MB-231, 48 h, read-out: IC50 (concentration yielding 50% growth inhibition)
Protocol: as §4, §5

CDK7/cyclinH/MATI = molecular target: T5, CDK7/cyclinH/MATI (Homo sapiens, UniProt P50613); assay: Kinase assay ([γ-33P]-ATP, histone H1); assay type: biochemical; details: read-out: % inhibition of kinase activity, CDK7/cyclinH/MATI
T5 construct: purchased Millipore, Dundee, UK (screening service)
Protocol: . The final reaction was carried out in a 25 μL solution. The respective kinases (at […] were incubated with 8 mM MOPS (pH 7.0), 0.2 mM EDTA, 0.1 mg/ml histone H1, 10 mM MgAcetate and [γ-33P-ATP] (specific activity approximately 500 cpm/pmol, concentration as required). The reaction was then initiated by the addition of the MgATP mix. The reaction was stopped after 40 min of incubation by adding 5 μL of a 3% phosphoric acid solution. 10 μL of the reaction was spotted onto a P30 filter mat and washed 3 times for 5 min in 75 mM phosphoric acid and one in methanol prior to drying and counted radioactivity by scintillation counting. […]. Table 1 summarizes the cytotoxic effects of VMY compounds and its controls on breast cancer cell line.
as §2, with “Kinase selectivity of compounds VMY-1-101 and VMY-1-103 were screened at Millipore, Dundee, UK. Briefly” for “Briefly”, “solution. From the reaction, 10 μL was spotted onto a P30 filtermat and washed three times for 5 minutes in 75 mM phosphoric acid and once in methanol prior to dying and scintillation counting.” for “solution.”

T5 sequence (P50613 whole entry): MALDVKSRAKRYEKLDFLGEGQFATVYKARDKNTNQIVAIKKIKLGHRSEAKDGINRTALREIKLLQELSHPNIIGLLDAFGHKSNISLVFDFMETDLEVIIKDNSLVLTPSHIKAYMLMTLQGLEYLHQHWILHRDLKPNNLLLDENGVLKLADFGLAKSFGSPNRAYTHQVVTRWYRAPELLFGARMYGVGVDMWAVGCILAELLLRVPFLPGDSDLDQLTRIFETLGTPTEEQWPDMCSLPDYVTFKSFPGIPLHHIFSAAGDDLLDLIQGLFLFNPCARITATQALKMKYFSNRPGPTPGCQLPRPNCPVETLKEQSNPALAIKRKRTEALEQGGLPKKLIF
T5 sequence (P51946 whole entry partner): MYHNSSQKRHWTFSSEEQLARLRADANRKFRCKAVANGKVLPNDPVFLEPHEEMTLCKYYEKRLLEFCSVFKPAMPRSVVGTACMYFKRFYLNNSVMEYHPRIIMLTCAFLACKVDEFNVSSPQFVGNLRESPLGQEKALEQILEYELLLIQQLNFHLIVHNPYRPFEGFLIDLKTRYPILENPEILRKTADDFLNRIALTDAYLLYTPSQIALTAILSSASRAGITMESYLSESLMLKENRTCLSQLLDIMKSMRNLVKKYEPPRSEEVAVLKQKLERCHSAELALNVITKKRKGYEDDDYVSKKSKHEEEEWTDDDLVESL
T5 sequence (P51948 whole entry partner): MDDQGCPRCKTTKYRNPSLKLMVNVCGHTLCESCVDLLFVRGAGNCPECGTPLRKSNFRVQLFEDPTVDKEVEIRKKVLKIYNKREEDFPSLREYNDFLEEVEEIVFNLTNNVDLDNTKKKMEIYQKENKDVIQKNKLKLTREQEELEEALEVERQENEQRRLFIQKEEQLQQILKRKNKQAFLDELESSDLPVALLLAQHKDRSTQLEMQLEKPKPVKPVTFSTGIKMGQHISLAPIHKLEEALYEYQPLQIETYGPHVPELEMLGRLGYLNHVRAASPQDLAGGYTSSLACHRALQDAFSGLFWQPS
T4 sequence (P06493 whole entry): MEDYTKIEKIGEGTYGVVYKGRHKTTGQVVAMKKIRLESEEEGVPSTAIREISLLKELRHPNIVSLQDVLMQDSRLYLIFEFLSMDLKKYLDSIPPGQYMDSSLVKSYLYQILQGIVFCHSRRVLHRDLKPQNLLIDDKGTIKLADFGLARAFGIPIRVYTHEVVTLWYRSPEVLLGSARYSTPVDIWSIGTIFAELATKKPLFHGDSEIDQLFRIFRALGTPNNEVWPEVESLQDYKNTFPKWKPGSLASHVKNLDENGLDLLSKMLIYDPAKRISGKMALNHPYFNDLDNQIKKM
T4 sequence (P14635 whole entry partner): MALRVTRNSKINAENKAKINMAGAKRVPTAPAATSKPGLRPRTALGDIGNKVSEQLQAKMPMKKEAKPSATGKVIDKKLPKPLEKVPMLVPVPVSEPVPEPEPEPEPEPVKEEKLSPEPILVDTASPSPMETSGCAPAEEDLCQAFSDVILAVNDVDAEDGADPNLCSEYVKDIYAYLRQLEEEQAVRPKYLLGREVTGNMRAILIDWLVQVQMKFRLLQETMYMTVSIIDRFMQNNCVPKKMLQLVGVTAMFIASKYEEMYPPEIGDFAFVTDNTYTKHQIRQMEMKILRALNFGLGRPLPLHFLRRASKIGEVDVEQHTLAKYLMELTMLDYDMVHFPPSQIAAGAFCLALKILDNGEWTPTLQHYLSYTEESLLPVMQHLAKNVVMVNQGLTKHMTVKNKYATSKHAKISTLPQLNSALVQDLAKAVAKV

Structure (SMILES): CC[C@H](CO)Nc1nc(Nc2ccc(C(=O)NCCNS(=O)(=O)c3cccc4c(N(C)C)cccc34)c(Cl)c2)c2ncn(C(C)C)c2n1 [VMY-1-101, 2-Chloro-N-[2-(5-dimethylamino-naphthalene-1-sulfonylamino)-ethyl]-4-[2-(1-hydroxymethyl-propylamino)-9-isopropyl-9H-purin-6-ylamino]-benzamide]
- inhibition at 0.1 µM (CDK2/cyclinE): 87%
- inhibition at 0.1 µM (CDK3/cyclinE): 40 ± 3%
- inhibition at 0.1 µM [1]: 62%
- inhibition at 0.1 µM (CDK1/cyclinB): 16 ± 3%
- effect on cell cycle progression (G2/M phase) (MCF-7 [2]; MCF-7, 5, 10 μM, 24 hrs): induced the cell cycle progression in G2/M phase
- % G1 (MCF-7 [2]; MCF-7, 24 hrs, 5 μM): 63.56 ± 1.20%
- % S (MCF-7 [2]; MCF-7, 24 hrs, 5 μM): 10.75 ± 0.88%
- % Sub-G1 (MCF-7 [2]; MCF-7, 24 hrs, 5 μM): 2.08 ± 0.19%
- effect on cell cycle progression (G2/M phase) (MDA-MB-231 [3]; MDA-MB-231, 5, 10 μM, 24 hrs): induced the cell cycle progression in G2/M phase
- % G1 (MDA-MB-231 [3]; MDA-MB-231, 24 hrs, 5 μM): 51.5 ± 0.50%
- % S (MDA-MB-231 [3]; MDA-MB-231, 24 hrs, 5 μM): 25.05 ± 0.45%
- % Sub-G1 (MDA-MB-231 [3]; MDA-MB-231, 24 hrs, 5 μM): 2.01 ± 0.19%
- PARP cleavage (MDA-MB-231 cells): moderate cleavage of the 116-kDa full length PARP into an 89-kDa fragment
- protein level of full length caspase 3 and 7 (MDA-MB-231 cells): decrease in protein level of full length caspase 3 and 7
- IC50 (MCF-7 [4]): 19.1 ± 1.14 µM
- IC50 (MDA-MB-231 [5]): 4.86 ± 1.24 µM
- inhibition at 0.1 µM (CDK7/cyclinH/MATI): 57%
